From patent publication US7851632B2, “Biphenyl compounds useful as muscarinic receptor antagonists” (Theravance, Inc., priority 2004, dated 2010)

Tested on: ACh-induced bronchoconstriction
Test: Duration of bronchoprotection in guinea pig model of acetylcholine-induced bronchoconstriction
Assay type: in vivo
Conditions: inhalation, 1.5 hours post-dose
Method: Determination of Duration of Bronchoprotection in Guinea Pig Model of Acetylcholine-Induced Bronchoconstriction
Groups of six male guinea pigs (Duncan-Hartley (HsdPoc:DH) Harlan, Madison, Wis.) weighing between 250 and 350 g were individually identified by cage cards. Throughout the study animals were allowed access to food and water ad libitum.
Test compounds were administered via inhalation over 10 minutes in a whole-body exposure dosing chamber (R&S Molds, San Carlos, Calif.). The dosing chambers were arranged so that an aerosol was simultaneously delivered to 6 individual chambers from a central manifold. Guinea pigs were exposed to an aerosol of a test compound or vehicle (WFI). […] This was measured gravimetrically by comparing pre- and post-nebulization weights of the filled nebulizer.
The bronchoprotective effects of test compounds administered via inhalation were evaluated using whole body plethysmography at 1.5, 24, 48 and 72 hours post-dose.
Forty-five minutes prior to the start of the pulmonary evaluation, each guinea pig was anesthetized with an intramuscular injection of ketamine (43.75 mg/kg), xylazine (3.50 mg/kg) and acepromazine (1.05 mg/kg). […] The depth of anesthesia was monitored and adjusted if the animal responded to pinching of its paw or if the respiration rate was greater than 100 breaths/minute. […]

CN(CCN1CCC(OC(=O)Nc2ccccc2-c2ccccc2)CC1)C(=O)c1ccc(CNCc2ccc(O)cc2)cc1 [Example 1, Biphenyl-2-ylcarbamic Acid 1-[2-({4-[(4-Hydroxybenzylamino)methyl]benzoyl}methylamino)ethyl]piperidin-4-yl Ester] was tested, and the “PD2(50) for ACh-induced bronchoconstriction” value was “less than 200 μg/mL”.
